Test results taken from paper PMC8035642, “A haustorial‐expressed lytic polysaccharide monooxygenase from the cucurbit powdery mildew pathogen Podosphaera xanthii contributes to the suppression of chitin‐triggered immunity” (Molecular Plant Pathology, 2021).

Molecular target: T1, PHEC27213 (PxLPMO1) (Podosphaera xanthii, UniProt A0A8E4PV92)
T1 construct: gene SHLPMO1; mature protein, signal peptide removed (191 residues), C-terminal 6xHis tag kept, pET30b NdeI/XhoI, E. coli BL21-CodonPlus-RIL; start Met from NdeI site probably before His1
T1 sequence (A0A8E4PV92 entry or part of it): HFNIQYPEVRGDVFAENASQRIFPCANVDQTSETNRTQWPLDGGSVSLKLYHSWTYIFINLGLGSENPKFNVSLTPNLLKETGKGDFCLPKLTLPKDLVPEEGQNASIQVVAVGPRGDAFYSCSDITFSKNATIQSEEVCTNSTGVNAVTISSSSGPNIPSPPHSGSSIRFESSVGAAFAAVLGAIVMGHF
Test: MALDI-TOF-MS of reaction products
Format: biochemical
Conditions: 1 mM ascorbic acid as reductant, 0.1 M sodium phosphate pH 7.0, 37 °C overnight, 1 μM enzyme; no copper addition told

## CC(=O)N[C@H]1[C@H](O[C@H]2[C@H](O)[C@@H](NC(C)=O)[C@H](O[C@H]3[C@H](O)[C@@H](NC(C)=O)[C@H](O[C@H]4[C@H](O)[C@@H](NC(C)=O)C(O)O[C@@H]4CO)O[C@@H]3CO)O[C@@H]2CO)O[C@H](CO)[C@@H](O[C@@H]2O[C@H](CO)[C@@H](O[C@@H]3O[C@H](CO)[C@@H](O[C@@H]4O[C@H](CO)[C@@H](O)[C@H](O)[C@H]4NC(C)=O)[C@H](O)[C@H]3NC(C)=O)[C@H](O)[C@H]2NC(C)=O)[C@@H]1O (stereo partly shown) [DP7, hepta-N-acetylchitoheptaose]
  MALDI-TOF-MS of reaction products: PHEC27213 was able to release, predominantly, DP5 oligosaccharides
